Data on 14 compounds can be found in patent EP4603105A1, “PHARMACEUTICAL COMPOSITION CONTAINING CYCLIC COMPOUND HAVING SELECTIVE KRAS INHIBITORY EFFECT AGAINST HRAS AND NRAS” (CHUGAI SEIYAKU KABUSHIKI KAISHA, priority 2022, dated 2024).

The target of test [1] is GDP-bound NRAS wild-type protein (Homo sapiens, UniProt P01111). The test can be described thus: Binding to NRAS by surface plasmon resonance (SPR), KD and KD ratio to KRAS. Conditions: ratio of KD for GDP-bound NRAS wild-type protein to KD for KRAS. Put shortly: (§1)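 Measured at 30°C: SPR with GDP-loaded, E. coli-expressed biotin-Avi RAS captured (~100–300 RU), ascending 75 s compound injections, HBS pH 7.4 with GDP, MgCl2, 4% DMSO. KD from 1:1 fit.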

The target of test [2] is GDP-bound KRAS wild-type protein (Homo sapiens, UniProt P01116). Put plainly: Binding to KRAS by surface plasmon resonance (SPR), dissociation constant KD. Conditions: Single Cycle Kinetics. The method, boiled down:
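Recombinant RAS proteins bearing a biotinylated Avi tag and loaded with GDP served as the captured ligand, recaptured fresh every cycle. Binding responses were referenced to an uncoated surface and a buffer-only blank cycle. Dissociation constants were obtained by 1:1 model fitting at 30°C.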

The test system of test [3] is human lung cancer strain NCI-H441. The format is cell-based. Put shortly: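 Signal came from […] measured per well once the reagent was added. Beforehand, cells were cultured at 37°C and 5% carbon dioxide on a compound series serially diluted in dimethyl sulfoxide.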
For test [4], the target named is HRAS wild-type protein (Homo sapiens, UniProt P01112). Put plainly: Binding to HRAS by surface plasmon resonance (SPR), KD and KD ratio to KRAS. Conditions: ratio of KD for HRAS wild-type protein to KD for KRAS. Put shortly:
as §1

GDP-bound KRAS wild-type protein, sequence (P01116 1-188 isoform P01116-2): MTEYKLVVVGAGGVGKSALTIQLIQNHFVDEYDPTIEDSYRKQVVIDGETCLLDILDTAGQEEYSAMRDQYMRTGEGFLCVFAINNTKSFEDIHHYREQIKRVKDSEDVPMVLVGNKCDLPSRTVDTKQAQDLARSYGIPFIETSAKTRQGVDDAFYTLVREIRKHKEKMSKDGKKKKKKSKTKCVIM
GDP-bound NRAS wild-type protein, sequence (P01111 whole entry): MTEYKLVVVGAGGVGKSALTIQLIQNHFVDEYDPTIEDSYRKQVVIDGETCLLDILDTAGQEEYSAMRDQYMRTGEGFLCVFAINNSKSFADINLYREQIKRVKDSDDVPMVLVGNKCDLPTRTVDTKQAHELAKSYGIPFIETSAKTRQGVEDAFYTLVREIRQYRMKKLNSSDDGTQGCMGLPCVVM
HRAS wild-type protein, sequence (P01112 whole entry): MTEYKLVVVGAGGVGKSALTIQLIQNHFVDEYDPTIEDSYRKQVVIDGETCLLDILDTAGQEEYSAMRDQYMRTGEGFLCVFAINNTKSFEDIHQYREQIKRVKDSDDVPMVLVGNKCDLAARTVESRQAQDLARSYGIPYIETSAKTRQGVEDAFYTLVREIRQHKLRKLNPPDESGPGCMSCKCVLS

Regarding `CC[C@H](C)[C@@H]1NC(=O)[C@H](COC)N(C)C(=O)C[C@@H](C(=O)N2CCOCC2)N(C)C(=O)[C@H](C2CCCC2)N(C)C(=O)C2(CCC2)NC(=O)[C@@H]2CC(F)(F)CN2C(=O)[C@H](CCc2cc(F)c(C(F)(F)F)c(F)c2)NC(=O)CN(C)C(=O)[C@H](Cc2ccc(C(F)(F)F)cc2)N2CCCCC[C@@H](C2=O)N(C)C(=O)CN(C)C1=O` [PP0834], the “NRAS /KRAS” value in test [1] is “A (a compound having 10 or more and less than 20 is denoted as A)”. The Kd in test [2] amounted to 0.19 nM. This compound also registered an IC50 in test [3] of 13.6 nM. In addition, the “HRAS /KRAS” value in test [4] was “B (a compound having 3 or more and less than 10 is denoted as B)”.

Take `CCO[C@@H]1C[C@H]2C(=O)NC3(CCC3)C(=O)N(C)[C@@H](C3CCCC3)C(=O)N(C)[C@H](C(=O)N3CCOCC3)CC(=O)N(C)[C@@H](COC3CC3)C(=O)N[C@@H]([C@@H](C)CC)C(=O)N(C)CC(=O)N(C)[C@H]3CCCCCN(C3=O)[C@@H](Cc3ccc(C(F)(F)F)cc3)C(=O)N(C)CC(=O)N[C@@H](CCc3cc(F)c(C(F)(F)F)c(F)c3)C(=O)N2C1` [PP0852]: in test [1], the “NRAS /KRAS” value was “B (a compound having 3 or more and less than 10 is denoted as B)”. Moreover, in test [2], the Kd was 0.46 nM. The same compound had an IC50 in test [3] of 35.3 nM. Moreover, the “HRAS /KRAS” value in test [4] is “B (a compound having 3 or more and less than 10 is denoted as B)”.

For `CCO[C@@H]1C[C@H]2C(=O)NC3(CCC3)C(=O)N(C)[C@@H](C3CCCC3)C(=O)N(C)[C@H](C(=O)N3CCOCC3)CC(=O)N(C)[C@@H](COCC(F)(F)F)C(=O)N[C@@H]([C@@H](C)CC)C(=O)N(C)CC(=O)N(C)[C@H]3CCCCCN(C3=O)[C@@H](Cc3ccc(C(F)(F)F)cc3)C(=O)N(C)CC(=O)N[C@@H](CCc3cc(F)c(C(F)(F)F)c(F)c3)C(=O)N2C1` [PP0853], the “NRAS /KRAS” value in test [1] was “B (a compound having 3 or more and less than 10 is denoted as B)”. In test [2], this compound gave a Kd of 0.67 nM. The compound also had an IC50 in test [3] of 24.3 nM. Also, the “HRAS /KRAS” value in test [4] is “B (a compound having 3 or more and less than 10 is denoted as B)”.

With `CCO[C@@H]1C[C@H]2C(=O)NC3(CCC3)C(=O)N(C)[C@@H](C3CCCC3)C(=O)N(C)[C@H](C(=O)N3CCOCC3)CC(=O)N(C)[C@@H](Cc3cscn3)C(=O)N[C@@H]([C@@H](C)CC)C(=O)N(C)CC(=O)N(C)[C@H]3CCCCCN(C3=O)[C@@H](Cc3ccc(C(F)(F)F)cc3)C(=O)N(C)CC(=O)N[C@@H](CCc3cc(F)c(C(F)(F)F)c(F)c3)C(=O)N2C1` [PP0855], in test [1], the “NRAS /KRAS” value was “B (a compound having 3 or more and less than 10 is denoted as B)”. For the same compound, the affinity in test [2], expressed as Kd, was 0.84 nM. Further, the IC50 in test [3] worked out at 114 nM. Moreover, the “HRAS /KRAS” value in test [4] is “B (a compound having 3 or more and less than 10 is denoted as B)”.

In the case of `CCO[C@@H]1C[C@H]2C(=O)NC3(CCC3)C(=O)N(C)[C@@H](C3CCCC3)C(=O)N(C)[C@H](C(=O)N3CCOCC3)CC(=O)N(C)[C@@H](Cc3cccc(F)c3)C(=O)N[C@@H]([C@@H](C)CC)C(=O)N(C)CC(=O)N(C)[C@H]3CCCCCN(C3=O)[C@@H](Cc3ccc(C(F)(F)F)cc3)C(=O)N(C)CC(=O)N[C@@H](CCc3cc(F)c(C(F)(F)F)c(F)c3)C(=O)N2C1` [PP0856], in test [1], the “NRAS /KRAS” value is “B (a compound having 3 or more and less than 10 is denoted as B)”. Moreover, in test [2], binding was characterised by a dissociation constant (Kd) of 0.96 nM. Also, in test [3], the IC50 came to 66.7 nM. The “HRAS /KRAS” value in test [4] is “B (a compound having 3 or more and less than 10 is denoted as B)”.

Turning to `CC[C@H](C)[C@@H]1NC(=O)[C@H](CC(C)C)N(C)C(=O)C[C@@H](C(=O)N2CCOCC2)N(C)C(=O)[C@H](C2CCCC2)N(C)C(=O)C2(CCC2)NC(=O)[C@@H]2[C@H](O)CCN2C(=O)[C@H](CCc2cc(F)c(C(F)(F)F)c(F)c2)NC(=O)CN(C)C(=O)[C@H](Cc2ccc(C(F)(F)F)cc2)N2CCCCC[C@@H](C2=O)N(C)C(=O)CN(C)C1=O` [PP0873], the “NRAS /KRAS” value in test [1] is “A (a compound having 10 or more and less than 20 is denoted as A)”. For the same compound, binding in test [2] was put at a Kd of 0.86 nM. In test [3], this compound gave an IC50 of 896 nM. Besides, the “HRAS /KRAS” value in test [4] was “B (a compound having 3 or more and less than 10 is denoted as B)”.

Consider `C=CCCC[C@H]1C(=O)N[C@@H]([C@@H](C)CC)C(=O)N(C)CC(=O)N(C)[C@H]2CCCCCN(C2=O)[C@@H](Cc2ccc(C(F)(F)F)cc2)C(=O)N(C)CC(=O)N[C@@H](CCc2cc(F)c(C(F)(F)F)c(F)c2)C(=O)N2C[C@H](OCC)C[C@H]2C(=O)N[C@](C)(CC=C)C(=O)N(C)[C@@H](C2CCCC2)C(=O)N(C)[C@H](C(=O)N2CCOCC2)CC(=O)N1C` [PP0880], for which the “NRAS /KRAS” value in test [1] is “B (a compound having 3 or more and less than 10 is denoted as B)”. The compound also came in with a Kd in test [2] of 4.5 nM. For the same compound, the IC50 in test [3] is 160 nM. In test [4], the “HRAS /KRAS” value was “B (a compound having 3 or more and less than 10 is denoted as B)”.

Turning to `CCO[C@@H]1C[C@H]2C(=O)NC3(CCC3)C(=O)N(C)[C@@H](C3CCCC3)C(=O)N(C)[C@H](C(=O)N(C)C)CC(=O)N(C)[C@@H](CC)C(=O)N[C@@H]([C@@H](C)CC)C(=O)N(C)CC(=O)N(C)[C@H]3CCCCN(C3=O)[C@@H](Cc3ccc(C(F)(F)F)cc3)C(=O)N(C)CC(=O)N[C@@H](CCc3ccc4ccsc4c3)C(=O)N2C1` [PP0888], the “NRAS /KRAS” value in test [1] was “C (A compound having a KD ratio of 0.1 or more and less than 3 is denoted as C)”. For the same compound, the Kd in test [2] is 0.17 nM. In test [3], this compound yielded an IC50 of 25.6 nM. Moreover, the “HRAS /KRAS” value in test [4] was “B (a compound having 3 or more and less than 10 is denoted as B)”.

For the compound `CCO[C@@H]1C[C@H]2C(=O)NC3(CCC3)C(=O)N(C)[C@@H](C3CCCC3)C(=O)N(C)[C@H](C(=O)N(C)C)CC(=O)N(C)[C@@H](CC)C(=O)N[C@@H]([C@@H](C)CC)C(=O)N(C)CC(=O)N(C)[C@H]3CCCCCN(C3=O)[C@@H](Cc3ccc(F)c(F)c3)C(=O)N(C)CC(=O)N[C@@H](CCc3cc(F)c(C(F)(F)F)c(F)c3)C(=O)N2C1` [PP0907], the “NRAS /KRAS” value in test [1] is “B (a compound having 3 or more and less than 10 is denoted as B)”. This compound gave a Kd in test [2] of 0.16 nM. Besides, inhibition in test [3] was half-maximal at 24.8 nM (IC50). Also, the “HRAS /KRAS” value in test [4] was “B (a compound having 3 or more and less than 10 is denoted as B)”.

In the case of `CCO[C@@H]1C[C@H]2C(=O)NC3(CCC3)C(=O)N(C)[C@@H](C3CCCC3)C(=O)N(C)[C@H](C(=O)N(C)C)CC(=O)N(C)[C@@H](CC)C(=O)N[C@@H]([C@@H](C)CC)C(=O)N(C)CC(=O)N(C)[C@H]3CCCCCN(C3=O)[C@@H](Cc3ccc(F)cc3Cl)C(=O)N(C)CC(=O)N[C@@H](CCc3cc(F)c(C(F)(F)F)c(F)c3)C(=O)N2C1` [PP0908], the “NRAS /KRAS” value in test [1] was “B (a compound having 3 or more and less than 10 is denoted as B)”. The same compound came in with a Kd in test [2] of 0.19 nM. Moreover, the half-inhibitory concentration (IC50) in test [3] turned out to be 38.5 nM. Moreover, the “HRAS /KRAS” value in test [4] is “B (a compound having 3 or more and less than 10 is denoted as B)”.

In the case of `CCO[C@@H]1C[C@H]2C(=O)NC3(CCC3)C(=O)N(C)[C@@H](C3CCCC3)C(=O)N(C)[C@H](C(=O)N(C)C)CC(=O)N(C)[C@@H](CC)C(=O)N[C@@H]([C@@H](C)CC)C(=O)N(C)CC(=O)N(C)[C@H]3CCCCCN(C3=O)[C@@H](Cc3ccc4ccsc4c3)C(=O)N(C)CC(=O)N[C@@H](CCc3cc(F)c(C(F)(F)F)c(F)c3)C(=O)N2C1` [PP0910], the “NRAS /KRAS” value in test [1] is “B (a compound having 3 or more and less than 10 is denoted as B)”. This compound also showed a Kd in test [2] of 0.62 nM. In test [3], this compound registered an IC50 of 66.2 nM. In test [4], the “HRAS /KRAS” value was “B (a compound having 3 or more and less than 10 is denoted as B)”.

For `CCO[C@@H]1C[C@H]2C(=O)NC3(CCC3)C(=O)N(C)[C@@H](C3CCCC3)C(=O)N(C)[C@H](C(=O)N(C)C)CC(=O)N(C)[C@@H](CC)C(=O)N[C@@H]([C@@H](C)CC)C(=O)N(C)CC(=O)N(C)[C@H]3CCCCCN(C3=O)[C@@H](Cc3ccc(F)c(C)c3)C(=O)N(C)CC(=O)N[C@@H](CCc3cc(F)c(C(F)(F)F)c(F)c3)C(=O)N2C1` [PP0912], the “NRAS /KRAS” value in test [1] is “B (a compound having 3 or more and less than 10 is denoted as B)”. In test [2], this compound returned a Kd of 0.32 nM. Also, the half-maximal inhibitory concentration (IC50) in test [3] is 40.5 nM. For the same compound, the “HRAS /KRAS” value in test [4] was “B (a compound having 3 or more and less than 10 is denoted as B)”.

Consider `CCO[C@@H]1C[C@H]2C(=O)NC3(CCC3)C(=O)N(C)[C@@H](C3CCCC3)C(=O)N(C)[C@H](C(=O)N(C)C)CC(=O)N(C)[C@@H](CC)C(=O)N[C@@H]([C@@H](C)CC)C(=O)N(C)CC(=O)N(C)[C@H]3CCCCCN(C3=O)[C@@H](Cc3nccs3)C(=O)N(C)CC(=O)N[C@@H](CCc3cc(F)c(C(F)(F)F)c(F)c3)C(=O)N2C1` [PP0913], for which the “NRAS /KRAS” value in test [1] was “B (a compound having 3 or more and less than 10 is denoted as B)”. Binding in test [2] was put at a Kd of 1.1 nM. The same compound returned an IC50 in test [3] of 206 nM. For the same compound, the “HRAS /KRAS” value in test [4] is “B (a compound having 3 or more and less than 10 is denoted as B)”.

`CCO[C@@H]1C[C@H]2C(=O)NC3(CCC3)C(=O)N(C)[C@@H](C3CCCC3)C(=O)N(C)[C@H](C(=O)N3CCOCC3)CC(=O)N(C)[C@@H](CC(C)C)C(=O)N[C@@H]([C@@H](C)CC)C(=O)N(C)CC(=O)N(C)[C@H]3CCCCCN(C3=O)[C@@H](Cc3ccc(F)c(F)c3)C(=O)N(C)CC(=O)N[C@@H](CCc3cc(F)c(C(F)(F)F)c(F)c3)C(=O)N2C1` [PP0917]: the “NRAS /KRAS” value in test [1] is “B (a compound having 3 or more and less than 10 is denoted as B)”. Further, binding in test [2] was characterised by a dissociation constant (Kd) of 0.16 nM. This compound came in with an IC50 in test [3] of 25.2 nM. Further, in test [4], the “HRAS /KRAS” value is “B (a compound having 3 or more and less than 10 is denoted as B)”.
